Data reported in patent US12168006B2, “Cancer therapy by degrading dual MEK signaling” (The Board of Trustees of the University of Illinois, priority 2017, dated 2024).
“Also recorded” adds a separate entry of the source.

Assays:
[1] = system: caspase-3/-7; test: Caspase-3/-7 activity assay; type: cell-based, human
Experimental: H3122 cells were seeded at 4,000 cells per well and allowed to adhere overnight. […] 10 μM raptinal was used as the positive control throughout the experiment. […] Plates were pre-incubated at 37° C. for 30 minutes in the SpectraMax M3 (Molecular Devices) plate reader and then read for 30 minutes at 3-minute intervals. Slopes for each well were calculated and averaged over six technical replicates. Activity is normalized to the maximal and minimal activity observed within the assay.

[2] = biological target: MEK2 (MAP2K2) (Homo sapiens, UniProt P36507); settings: at 1 μM; cited from earlier work
[3] = system: CaMKII; settings: cited from earlier work
[4] = system: CK2; settings: cited from earlier work
[5] = biological target: PKCδ (Homo sapiens, UniProt Q05655); settings: cited from earlier work
Sequence of PKCδ (Q05655 whole entry): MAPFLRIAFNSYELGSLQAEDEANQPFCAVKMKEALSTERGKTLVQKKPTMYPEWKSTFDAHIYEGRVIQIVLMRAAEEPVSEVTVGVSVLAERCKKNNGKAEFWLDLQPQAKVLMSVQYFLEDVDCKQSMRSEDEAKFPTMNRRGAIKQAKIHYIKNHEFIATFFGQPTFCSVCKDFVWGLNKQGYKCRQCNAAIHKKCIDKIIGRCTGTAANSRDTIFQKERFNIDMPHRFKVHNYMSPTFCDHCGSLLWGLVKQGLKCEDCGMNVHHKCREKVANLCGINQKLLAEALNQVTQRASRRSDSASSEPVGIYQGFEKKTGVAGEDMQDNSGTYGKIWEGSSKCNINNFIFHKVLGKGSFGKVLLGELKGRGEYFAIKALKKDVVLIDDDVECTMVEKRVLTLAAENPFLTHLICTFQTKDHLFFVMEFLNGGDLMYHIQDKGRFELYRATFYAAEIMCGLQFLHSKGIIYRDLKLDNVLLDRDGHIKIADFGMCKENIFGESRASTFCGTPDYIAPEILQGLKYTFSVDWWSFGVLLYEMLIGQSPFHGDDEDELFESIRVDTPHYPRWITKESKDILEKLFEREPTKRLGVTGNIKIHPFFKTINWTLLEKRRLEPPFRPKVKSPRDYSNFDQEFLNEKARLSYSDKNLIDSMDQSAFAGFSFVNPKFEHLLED

[6] = biological target: Fyn (Homo sapiens, UniProt P06241); settings: at 1 μM; cited from earlier work
Sequence of Fyn (P06241 whole entry, species assumed): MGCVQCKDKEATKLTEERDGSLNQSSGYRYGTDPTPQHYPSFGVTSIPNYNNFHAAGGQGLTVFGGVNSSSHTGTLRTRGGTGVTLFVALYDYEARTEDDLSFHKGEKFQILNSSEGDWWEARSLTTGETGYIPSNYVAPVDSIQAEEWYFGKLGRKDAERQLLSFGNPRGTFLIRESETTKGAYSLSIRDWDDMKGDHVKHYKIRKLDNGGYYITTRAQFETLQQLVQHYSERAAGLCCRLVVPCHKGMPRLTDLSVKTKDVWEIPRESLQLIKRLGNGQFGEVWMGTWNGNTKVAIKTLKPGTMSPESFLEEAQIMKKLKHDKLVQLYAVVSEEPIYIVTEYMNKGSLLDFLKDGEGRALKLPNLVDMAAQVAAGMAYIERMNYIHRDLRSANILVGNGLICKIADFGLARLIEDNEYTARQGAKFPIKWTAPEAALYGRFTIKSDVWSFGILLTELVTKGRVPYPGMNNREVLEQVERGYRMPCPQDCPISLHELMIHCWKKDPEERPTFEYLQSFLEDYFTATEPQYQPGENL

[7] = biological target: ERK1/2 (MAPK1) (Homo sapiens, UniProt P28482); settings: cited from earlier work
Sequence of ERK1/2 (MAPK1) (P28482 2-360 limits assumed): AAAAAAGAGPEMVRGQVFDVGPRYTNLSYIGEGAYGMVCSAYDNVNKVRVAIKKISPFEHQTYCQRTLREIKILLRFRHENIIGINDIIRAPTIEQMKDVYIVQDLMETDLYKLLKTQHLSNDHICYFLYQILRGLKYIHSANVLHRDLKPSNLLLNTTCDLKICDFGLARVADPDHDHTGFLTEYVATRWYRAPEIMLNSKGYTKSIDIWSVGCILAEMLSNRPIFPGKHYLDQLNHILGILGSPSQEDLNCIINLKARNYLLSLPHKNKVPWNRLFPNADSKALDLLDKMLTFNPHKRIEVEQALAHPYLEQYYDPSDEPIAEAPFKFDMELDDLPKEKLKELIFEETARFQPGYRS

[8] = biological target: CDK1 (Homo sapiens, UniProt P06493); settings: at 1 μM; cited from earlier work
Sequence of CDK1 (P06493 whole entry, species assumed): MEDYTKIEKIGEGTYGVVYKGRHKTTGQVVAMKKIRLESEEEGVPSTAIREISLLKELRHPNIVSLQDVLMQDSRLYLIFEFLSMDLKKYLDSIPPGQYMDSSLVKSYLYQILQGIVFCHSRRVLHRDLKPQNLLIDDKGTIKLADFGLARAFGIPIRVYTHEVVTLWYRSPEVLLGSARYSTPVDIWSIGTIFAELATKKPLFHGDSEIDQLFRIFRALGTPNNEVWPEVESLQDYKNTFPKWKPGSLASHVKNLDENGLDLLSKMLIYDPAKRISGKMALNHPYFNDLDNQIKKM
Sequence of CDK1 (P14635 whole entry partner, species assumed): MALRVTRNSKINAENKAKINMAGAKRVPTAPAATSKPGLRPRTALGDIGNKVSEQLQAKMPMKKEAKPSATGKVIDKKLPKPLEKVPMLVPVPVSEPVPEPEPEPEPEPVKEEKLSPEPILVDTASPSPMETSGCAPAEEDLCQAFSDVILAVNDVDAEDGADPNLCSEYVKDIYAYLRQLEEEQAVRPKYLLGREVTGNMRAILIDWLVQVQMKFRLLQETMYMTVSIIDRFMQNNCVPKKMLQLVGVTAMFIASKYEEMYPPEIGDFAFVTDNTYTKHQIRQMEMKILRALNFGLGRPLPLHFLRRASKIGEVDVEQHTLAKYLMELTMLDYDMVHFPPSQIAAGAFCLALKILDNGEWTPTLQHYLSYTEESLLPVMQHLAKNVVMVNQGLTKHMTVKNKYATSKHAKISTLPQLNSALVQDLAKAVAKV

[9] = biological target: DYRK1A (Homo sapiens, UniProt Q13627); settings: at 1 μM; cited from earlier work
[10] = biological target: PKCζ (Homo sapiens, UniProt Q05513); settings: cited from earlier work
Sequence of PKCζ (Q05513 whole entry): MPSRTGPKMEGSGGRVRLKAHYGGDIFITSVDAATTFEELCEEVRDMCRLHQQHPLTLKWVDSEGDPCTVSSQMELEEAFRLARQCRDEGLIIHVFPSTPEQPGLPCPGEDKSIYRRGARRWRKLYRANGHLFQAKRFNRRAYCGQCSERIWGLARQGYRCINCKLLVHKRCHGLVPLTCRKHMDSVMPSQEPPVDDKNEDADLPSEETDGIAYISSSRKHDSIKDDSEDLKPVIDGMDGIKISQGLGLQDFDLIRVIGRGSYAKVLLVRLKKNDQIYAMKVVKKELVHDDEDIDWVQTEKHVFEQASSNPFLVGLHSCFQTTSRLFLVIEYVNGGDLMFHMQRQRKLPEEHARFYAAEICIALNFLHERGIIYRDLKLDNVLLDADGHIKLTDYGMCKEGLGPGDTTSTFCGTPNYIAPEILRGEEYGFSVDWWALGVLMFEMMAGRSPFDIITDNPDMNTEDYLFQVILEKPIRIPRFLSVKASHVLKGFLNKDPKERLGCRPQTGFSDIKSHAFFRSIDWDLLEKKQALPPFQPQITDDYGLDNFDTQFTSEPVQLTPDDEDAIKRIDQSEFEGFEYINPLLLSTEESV

[11] = system: PKA; settings: cited from earlier work
[12] = system: Lyn; settings: Ba/F3 cells; cited from earlier work
[13] = system: AKT; settings: cited from earlier work
[14] = system: H3122 cells; test: Long term experiments with EML4-ALK cell line; settings: for cytotoxic effect / cell proliferation: 8 days, PAC-1 2 μM, trametinib 5 nM
Experimental: H3122 cells were seeded at 10,000 cells per well in 6 well plates and allowed to adhere overnight. […] Media was refreshed every 3-4 days with new compounds. At the end of the incubation period, cells were fixed 10% trichloroacetic acid, stained with SRB, imaged using GelDoc XR, and absorbance at 510 nm read using SpectraMax M3 (Molecular Devices) plate reader.

[15] = system: PC-9 GR and H1975 cells; test: Cell viability assay (SRB); type: cell-based, human; settings: 5-day incubation
Experimental: Final concentration of DMSO in each well is 0.5%. At the end of 5 days, viability was assessed by the sulforhodamine B (SRB) assay sulforhodamine B (SRB) assay. Briefly, 100 μL of 10% trichloroacetic acid (TCA) was added in each well and the plate was incubated for at least 1 hour at 4° C. After the 4° C. incubation, the plate was washed with water and allowed to dry for at least 1 hour at room temperature. 100 μL of SRB dye (1% w/v) was added to each well and incubated for 30 minutes at room temperature. At the end of the 30 minutes incubation, the plate was washed with 1% acetic acid solution and allowed to dry at room temperature. Finally, 200 μL of Tris solution (pH>10) was added to each well to dissolve the SRB dye. The absorbance of each well was read with a SpectraMax M3 plate reader (Molecular Devices) at 510 nm.

[16] = system: A375 cells; test: Long term experiments in BRAF^V600E cell lines; type: cell-based, human; settings: continuous treatment
Experimental: (§1) This assay was performed as described previously. Briefly, 100-250 cells were seeded and allowed to adhere overnight. […] Media was refreshed with new compounds added every 3-4 days.

[17] = system: MEK1 and MEK2 kinases; test: Immunoblotting of procaspase-3, MEK1 and MEK2 levels; type: cell-based, human; settings: Q-VD-OPh 25 μM added concurrently; 48 hours; A375, PC-9 GR, H3122
Experimental: Cells were lysed using RIPA buffer containing phosphatase (BioVision) and protease inhibitor cocktail (Calbiochem). Protein concentration was determined using the BCA assay (Pierce). Cell lysates containing 8-20 μg of protein were loaded into each lane of 4-20% gradient gels (BioRad) and ran for SDS-PAGE. Proteins were transferred onto PDVF membrane (Millipore) for Western blot analysis. Blots were blocked with BSA for one hour followed by incubation with primary antibody overnight (manufacturer's recommended dilutions). Secondary antibody was incubated for one hour. Blots were then imaged with a ChemiDoc Touch after incubation with SuperSignal West Pico Solution following manufacturer's protocols.

[18] = system: A375, PC-9 GR, H3122, K-562 cells; test: Q-VD-OPh protection by flow cytometry; type: cell-based, human; settings: Q-VD-OPh 25 μM added concurrently; 48 hours
Experimental: A375 (BRAF^V600E) cells were seeded with 70,000 cells/well in 12-well plates and allowed to adhere overnight. The next day, indicated concentrations of PAC-1, vemurafenib, trametinib, and/or Q-VD-OPh were added and cells were incubated at 37° C. for 48 hours. […] The next day, they were incubated with PAC-1, ceritinib, and/or Q-VD-OPh for 48 hours. K-562 cells were seeded with 35,000 cells/well in 12-well plates.

[19] = system: BRAF^V600E melanoma, EGFR^T790M, and EML4-ALK NSCLCs; test: Delay of acquired resistance, summary of long term experiments; type: cell-based, human; settings: added to the kinase inhibitor
Experimental: as §1

[20] = system: H1975 cells; test: Long term experiments with EGFR^T790M cell lines
Experimental: (§2) In 12 well plates, PC-9 GR or H1975 cells were seeded at 2,000 cells per well and allowed to adhere overnight.

[21] = system: PC-9 GR cells; test: Long term experiments with EGFR^T790M cell lines
Experimental: as §2

[22] = H1975 NSCLC cells, PAC-1 5 μM, up to 48 h
[23] = PC-9 GR NSCLC cells, PAC-1 5 μM, up to 48 h

Sequence of MEK2 (MAP2K2) (P36507 whole entry, species assumed): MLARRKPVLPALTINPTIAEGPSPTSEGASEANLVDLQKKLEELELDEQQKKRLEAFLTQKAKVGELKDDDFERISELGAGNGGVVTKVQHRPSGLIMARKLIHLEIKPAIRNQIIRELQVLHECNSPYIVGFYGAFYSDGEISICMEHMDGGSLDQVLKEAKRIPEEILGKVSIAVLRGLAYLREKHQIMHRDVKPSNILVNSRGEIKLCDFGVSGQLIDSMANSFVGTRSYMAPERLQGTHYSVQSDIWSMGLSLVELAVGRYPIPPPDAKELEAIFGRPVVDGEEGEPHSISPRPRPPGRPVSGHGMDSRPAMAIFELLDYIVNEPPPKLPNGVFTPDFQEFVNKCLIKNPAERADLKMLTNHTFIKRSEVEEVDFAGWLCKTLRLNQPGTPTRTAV

## Cc1ccc(NC(=O)c2ccc(CN3CCN(C)CC3)cc2)cc1Nc1nccc(-c2cccnc2)n1 [Imatinib]
[1]; K-562 cells, PAC-1 7.5 μM
  caspase-3 activity: negligible single-agent activity
[2]
  % Inhibition of MEK2 (MAP2K2): 5.9% at 1 μM
[3]
  Inhibition of CaMKII (in words): Not observed
[4]
  Inhibition of CK2 (in words): Not observed
[5]
  Inhibition of PKCδ (in words): Not observed
[6]
  % Inhibition of Fyn: 29.6% at 1 μM
[7]
  Inhibition of ERK1/2 (MAPK1) (in words): Not observed
[8]
  % Inhibition of CDK1: 1.8% at 1 μM
[9]
  % Inhibition of DYRK1A: 2.2% at 1 μM
[10]
  Inhibition of PKCζ (in words): Not observed
[11]
  Inhibition of PKA (in words): Not observed

## Cc1cc(Nc2ncc(Cl)c(Nc3ccccc3S(=O)(=O)C(C)C)n2)c(OC(C)C)cc1C1CCNCC1 [Ceritinib]
[12]
  IC50: 2310 nM
[13]
  IC50: > 10000 nM
[14]
  cytotoxic effect / cell proliferation: effective in inhibiting cell proliferation
[14]; 20 days of treatment
  resistant clones: Resistant clones were visible
[14]; 32 days of treatment
  resistant clones: dramatic increase

## COc1cc2ncnc(Nc3ccc(F)c(Cl)c3)c2cc1OCCCN1CCOCC1 [gefitinib]
[15]
  activity in PC-9 GR and H1975 cells (FIG. 7A): inactive

## CC(=O)Nc1cccc(-n2c(=O)n(C3CC3)c(=O)c3c(Nc4ccc(I)cc4F)n(C)c(=O)c(C)c32)c1 [trametinib]
[14]
  cytotoxic effect / cell proliferation: minimal cytotoxic effect

## CCCS(=O)(=O)Nc1ccc(F)c(C(=O)c2c[nH]c3ncc(-c4ccc(Cl)cc4)cc23)c1F [Vemurafenib]
[16]
  time at which resistant colonies were first seen: 20 days

## CC(C)[C@H](NC(=O)c1ccc2ccccc2n1)C(=O)N[C@@H](CC(=O)O)C(=O)COc1c(F)cccc1F [Q-VD-OPh]
[17]
  MEK1/2 cleavage in cells treated with PAC-1/drug combinations: attenuated
[18]
  apoptotic cell death in cells treated with PAC-1/drug combinations: protection

## C=CCc1cccc(/C=N/NC(=O)CN2CCN(Cc3ccccc3)CC2)c1O [PAC-1]
[1]; [22]
  caspase-3 activity: Negligible increases
[1]; K-562 cells, PAC-1 7.5 μM
  caspase-3 activity: negligible single-agent activity
[1]; [23]
  caspase-3 activity: Negligible increases
[19]
  concentration effective in delaying acquired resistance to vemurafenib, osimertinib, and ceritinib: 1 to 2 µM

## C=CC(=O)Nc1cc(Nc2nccc(-c3cn(C)c4ccccc34)n2)c(OC)cc1N(C)CCN(C)C [Osimertinib]
[1]; [22]
  caspase-3 activity: Negligible increases
[1]; [23]
  caspase-3 activity: Negligible increases
[20]
  cytotoxic effect / cell proliferation: very effective
  resistant clones: clearly visible
[21]
  resistant clones: clearly visible; also recorded: resistant clones were visible; also recorded: dramatic increase
[21]; 8 days, PAC-1 2 μM, osimertinib 30 nM, trametinib 5 nM
  cytotoxic effect / cell proliferation: very effective; also recorded: effective in inhibiting cell proliferation
